These results are taken from publication PMC11434129, “Mechanistic Insights from the Crystal Structure and Computational Analysis of the Radical SAM Deaminase DesII” (Advanced Science, 2024).

The target in assay [1] is T1, DesII (Streptomyces venezuelae, UniProt Q9ZGH1).
T1 construct: C-terminal His6-tag kept; selenomethionine derivative used for phasing; [Fe4S4] cluster; N-terminal 7-9 residues disordered in crystal
Kind of assay: X-ray crystal structure, […] Å. In kind it is binding.

Assay [2] concerns the target T2, DesII (second DesII expression construct) (Streptomyces venezuelae, UniProt Q9ZGH1).
T2 construct: pSJ5 vector, TrxA fusion, His8-tag and TEV site; N-terminal tag removed by TEV; [Fe4S4] cluster; loop D323-E337 disordered
T2 sequence (Q9ZGH1 1-485): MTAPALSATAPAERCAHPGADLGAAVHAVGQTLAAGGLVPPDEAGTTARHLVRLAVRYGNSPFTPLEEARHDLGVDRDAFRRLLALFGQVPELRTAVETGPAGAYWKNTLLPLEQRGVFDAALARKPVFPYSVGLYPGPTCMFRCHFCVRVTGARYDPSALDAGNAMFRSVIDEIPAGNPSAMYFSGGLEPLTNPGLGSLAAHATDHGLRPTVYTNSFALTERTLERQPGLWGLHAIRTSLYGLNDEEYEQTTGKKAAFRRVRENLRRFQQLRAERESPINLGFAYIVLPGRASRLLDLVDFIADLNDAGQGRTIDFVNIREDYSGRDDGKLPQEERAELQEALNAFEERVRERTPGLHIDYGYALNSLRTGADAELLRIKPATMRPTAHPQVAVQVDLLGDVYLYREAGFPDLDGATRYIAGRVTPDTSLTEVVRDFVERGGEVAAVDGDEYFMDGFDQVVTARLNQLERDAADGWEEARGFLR
Kind of assay: X-ray crystal structure, […] Å. The class given is binding. The settings on record: coordinates fourth iron of [Fe4S4] cluster in one monomer; pH 6.0 crystals.

For assay [3], the target named is T3, DesII (Streptomyces venezuelae, UniProt Q9ZGH1, E408Q).
T3 construct: C-terminal His6-tag kept; selenomethionine derivative used for phasing; [Fe4S4] cluster; N-terminal 7-9 residues disordered in crystal
T3 sequence (Q9ZGH1 whole entry E408Q, the tested form may be a part): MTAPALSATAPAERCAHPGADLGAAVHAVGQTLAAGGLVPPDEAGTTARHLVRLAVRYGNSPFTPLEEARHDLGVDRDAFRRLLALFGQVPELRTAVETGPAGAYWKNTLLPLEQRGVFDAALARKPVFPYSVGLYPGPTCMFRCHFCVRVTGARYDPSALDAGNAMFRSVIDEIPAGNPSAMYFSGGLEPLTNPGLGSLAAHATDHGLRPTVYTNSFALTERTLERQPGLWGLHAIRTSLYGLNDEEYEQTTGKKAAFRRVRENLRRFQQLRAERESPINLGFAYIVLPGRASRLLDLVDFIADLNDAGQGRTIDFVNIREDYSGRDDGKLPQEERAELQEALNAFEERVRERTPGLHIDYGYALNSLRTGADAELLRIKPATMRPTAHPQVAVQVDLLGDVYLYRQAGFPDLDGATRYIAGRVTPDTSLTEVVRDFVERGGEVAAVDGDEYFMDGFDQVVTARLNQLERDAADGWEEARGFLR
Kind of assay: deaminase activity assay. In kind it is biochemical. Conditions: deamination.

The target in assay [4] is T1, DesII. The experiment in a line: deaminase activity assay. The class given is biochemical. Conditions: deamination.
Assay [5] deals with T4, DesII (Streptomyces venezuelae, UniProt Q9ZGH1, E408A).
T4 construct: C-terminal His6-tag kept; selenomethionine derivative used for phasing; [Fe4S4] cluster; N-terminal 7-9 residues disordered in crystal
T4 sequence (Q9ZGH1 whole entry E408A, the tested form may be a part): as the sequence (Q9ZGH1 whole entry E408Q, the tested form may be a part) above, with Q408A counted along it
Kind of assay: deaminase activity assay. In kind it is biochemical. Conditions: deamination.

Regarding `CSCC[C@H](N)C(=O)O` [Met, methionine], in assay [1] (active sites of chains b and d), the “X-ray crystal structure, 2.33 Å” value was “with methionine bound in the active sites of chains b and d”. Besides, in assay [2], the “X-ray crystal structure, 2.04 Å” value was “coordinated with a water molecule and the other with methionine”.

With `C[S+](CC[C@H](N)C(=O)O)C[C@H]1O[C@@H](n2cnc3c(N)ncnc32)[C@H](O)[C@@H]1O` (stereo partly drawn) [SAM, S-adenosyl-L-methionine], the “X-ray crystal structure, 2.33 Å” value in assay [1] (coordinated to [Fe4S4] cluster, chains a and c) was “A single molecule of SAM was found coordinated to the [Fe4S4] cluster in chains a”.

As to `Cc1cn([C@H]2C[C@H](O)[C@@H](COP(=O)(O)OP(=O)(O)O[C@H]3O[C@H](C)[C@@H](N)[C@H](O)[C@H]3O)O2)c(=O)[nH]c1=O` [compound 1, TDP-4-amino-4,6-dideoxy-D-glucose], the deaminase activity assay entry in assay [3] is “E408A and E408Q mutants were both constructed and found to retain deaminase activity”; in assay [4], “found to retain deaminase activity comparable to that of wildtype enzyme”; in assay [5], “E408A and E408Q mutants were both constructed and found to retain deaminase activity”.
